ChEMBL document CHEMBL5113453, “Design, synthesis, and biological evaluation of a new series of pyrazole derivatives: Discovery of potent and selective JNK3 kinase inhibitors” (Bioorg Med Chem, 2022)

Legend:
OVCAR-5 = assay: Antiproliferative activity against human OVCAR-5 cells measured after 48 hrs by SRB assay; assay type: functional, cell-based
TK-10 = assay: Antiproliferative activity against human TK-10 cells measured after 48 hrs by SRB assay; assay type: functional, cell-based
786-0 = assay: Antiproliferative activity against human 786-0 cells measured after 48 hrs by SRB assay; assay type: functional, cell-based
OVCAR-3 = assay: Antiproliferative activity against human OVCAR-3 cells measured after 48 hrs by SRB assay; assay type: functional, cell-based
SK-MEL-28 = assay: Antiproliferative activity against human SK-MEL-28 cells measured after 48 hrs by SRB assay; assay type: functional, cell-based
UACC-62 = assay: Antiproliferative activity against human UACC-62 cells measured after 48 hrs by SRB assay; assay type: functional, cell-based
NCI/ADR-RES = assay: Antiproliferative activity against human NCI-ADR-RES cells measured after 48 hrs by SRB assay; assay type: functional, cell-based
SNB-75 = assay: Antiproliferative activity against human SNB-75 cells measured after 48 hrs by SRB assay; assay type: functional, cell-based
MDA-MB-435 = assay: Antiproliferative activity against human MDA-MB-435 cells measured after 48 hrs by SRB assay; assay type: functional, cell-based
SR = assay: Antiproliferative activity against human SR cells measured after 48 hrs by SRB assay; assay type: functional, cell-based
MCF7 = assay: Antiproliferative activity against human MCF7 cells measured after 48 hrs by SRB assay; assay type: functional, cell-based
OVCAR-4 = assay: Antiproliferative activity against human OVCAR-4 cells measured after 48 hrs by SRB assay; assay type: functional, cell-based
M14 = assay: Antiproliferative activity against human M14 cells measured after 48 hrs by SRB assay; assay type: functional, cell-based
NCI-H226 = assay: Antiproliferative activity against human NCI-H226 cells measured after 48 hrs by SRB assay; assay type: functional, cell-based
NCI-H460 = assay: Antiproliferative activity against human NCI-H460 cells measured after 48 hrs by SRB assay; assay type: functional, cell-based
HOP-92 = assay: Antiproliferative activity against human HOP-92 cells measured after 48 hrs by SRB assay; assay type: functional, cell-based
DU-145 = assay: Antiproliferative activity against human DU-145 cells measured after 48 hrs by SRB assay; assay type: functional, cell-based
UO-31 = assay: Antiproliferative activity against human UO-31 cells measured after 48 hrs by SRB assay; assay type: functional, cell-based
U-251 = assay: Antiproliferative activity against human U-251 cells measured after 48 hrs by SRB assay; assay type: functional, cell-based
RPMI-8226 = assay: Antiproliferative activity against human RPMI-8226 cells measured after 48 hrs by SRB assay; assay type: functional, cell-based
MDA-MB-231 = assay: Antiproliferative activity against human MDA-MB-231 cells measured after 48 hrs by SRB assay; assay type: functional, cell-based
SF-539 = assay: Antiproliferative activity against human SF-539 cells measured after 48 hrs by SRB assay; assay type: functional, cell-based
A498 = assay: Antiproliferative activity against human A498 cells measured after 48 hrs by SRB assay; assay type: functional, cell-based
WI-38 = assay: Antiproliferative activity against human WI-38 cells measured by MTT assay; assay type: functional, cell-based
[1] = target: Mitogen-activated protein kinase 10 (Homo sapiens, UniProt P53779); assay: Inhibition of JNK3 (unknown origin)
HCC 2998 = assay: Antiproliferative activity against human HCC 2998 cells measured after 48 hrs by SRB assay; assay type: functional, cell-based
SNB-19 = assay: Antiproliferative activity against human SNB-19 cells measured after 48 hrs by SRB assay; assay type: functional, cell-based
SF-295 = assay: Antiproliferative activity against human SF-295 cells measured after 48 hrs by SRB assay; assay type: functional, cell-based
COLO 205 = assay: Antiproliferative activity against human COLO 205 cells measured after 48 hrs by SRB assay; assay type: functional, cell-based
SN12C = assay: Antiproliferative activity against human SN12C cells measured after 48 hrs by SRB assay; assay type: functional, cell-based
T47D = assay: Antiproliferative activity against human T47D cells measured after 48 hrs by SRB assay; assay type: functional, cell-based
SK-OV-3 = assay: Antiproliferative activity against human SK-OV-3 cells measured after 48 hrs by SRB assay; assay type: functional, cell-based
SK-MEL-2 = assay: Antiproliferative activity against human SK-MEL-2 cells measured after 48 hrs by SRB assay; assay type: functional, cell-based
CCRF-CEM = assay: Antiproliferative activity against human CCRF-CEM cells measured after 48 hrs by SRB assay; assay type: functional, cell-based
HL-60(TB) = assay: Antiproliferative activity against human HL-60(TB) cells measured after 48 hrs by SRB assay; assay type: functional, cell-based
KM12 = assay: Antiproliferative activity against human KM12 cells measured after 48 hrs by SRB assay; assay type: functional, cell-based
BT-549 = assay: Antiproliferative activity against human BT-549 cells measured after 48 hrs by SRB assay; assay type: functional, cell-based
Malme-3M = assay: Antiproliferative activity against human Malme-3M cells measured after 48 hrs by SRB assay; assay type: functional, cell-based
HT-29 = assay: Antiproliferative activity against human HT-29 cells measured after 48 hrs by SRB assay; assay type: functional, cell-based

Sequence of Mitogen-activated protein kinase 10 (P53779 whole entry): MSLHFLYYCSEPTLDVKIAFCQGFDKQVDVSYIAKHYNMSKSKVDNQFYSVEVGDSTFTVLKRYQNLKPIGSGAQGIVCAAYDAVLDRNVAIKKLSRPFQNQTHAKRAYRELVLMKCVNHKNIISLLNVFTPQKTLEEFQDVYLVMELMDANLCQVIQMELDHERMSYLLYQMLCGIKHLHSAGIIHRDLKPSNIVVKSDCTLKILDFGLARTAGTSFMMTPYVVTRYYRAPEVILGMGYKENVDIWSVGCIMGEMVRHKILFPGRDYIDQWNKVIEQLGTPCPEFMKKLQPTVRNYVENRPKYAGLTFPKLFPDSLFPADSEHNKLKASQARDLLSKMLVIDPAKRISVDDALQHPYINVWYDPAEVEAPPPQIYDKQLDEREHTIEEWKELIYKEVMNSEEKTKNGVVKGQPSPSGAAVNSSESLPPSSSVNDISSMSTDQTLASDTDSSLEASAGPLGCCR

O=C(NCCCNc1cc(-c2cn(-c3ccccc3)nc2-c2cccc(O)c2)ccn1)Nc1ccc(F)cc1
IC50 (OVCAR-5; OVCAR-5, 48 h): 3.37 µM
TGI (OVCAR-5; OVCAR-5, time 48 hrs): 9.12 µM
IC50 (TK-10; TK-10, 48 h): 6.78 µM
TGI (TK-10; TK-10, time 48 hrs): 20.3 µM
IC50 (786-0; 786-0, 48 h): 860 nM
TGI (786-0; 786-0, time 48 hrs): 3.61 µM
IC50 (OVCAR-3; OVCAR-3, 48 h): 2160 nM
TGI (OVCAR-3; OVCAR-3, time 48 hrs): 8.69 µM
IC50 (SK-MEL-28; SK-MEL-28, 48 h): 2540 nM
TGI (SK-MEL-28; SK-MEL-28, time 48 hrs): 5.64 µM
IC50 (UACC-62; UACC-62, 48 h): 3.14 µM
TGI (UACC-62; UACC-62, time 48 hrs): 6.6 µM
IC50 (NCI/ADR-RES; 48 h): 3.51 µM
TGI (NCI/ADR-RES; time 48 hrs): 12.5 µM
IC50 (SNB-75; SNB-75, 48 h): 540 nM
TGI (SNB-75; SNB-75, time 48 hrs): 3.18 µM
IC50 (MDA-MB-435; MDA-MB-435, 48 h): 1660 nM
TGI (MDA-MB-435; MDA-MB-435, time 48 hrs): 5.05 µM
IC50 (SR; 48 h): 1510 nM
TGI (SR; time 48 hrs): 13.8 µM
IC50 (MCF7; MCF7, 48 h): 2320 nM
TGI (MCF7; MCF7, time 48 hrs): 6.04 µM
IC50 (OVCAR-4; OVCAR-4, 48 h): 1460 nM
TGI (OVCAR-4; OVCAR-4, time 48 hrs): 8.21 µM
IC50 (M14; M14, 48 h): 1570 nM
TGI (M14; M14, time 48 hrs): 5.85 µM
IC50 (NCI-H226; NCI-H226, 48 h): 3.39 µM
TGI (NCI-H226; NCI-H226, time 48 hrs): 8.91 µM
IC50 (NCI-H460; NCI-H460, 48 h): 2350 nM
TGI (NCI-H460; NCI-H460, time 48 hrs): 5.88 µM
IC50 (HOP-92; HOP-92, 48 h): 860 nM
TGI (HOP-92; HOP-92, time 48 hrs): 4.97 µM
IC50 (DU-145; DU-145, 48 h): 4.22 µM
TGI (DU-145; DU-145, time 48 hrs): 19.3 µM
IC50 (UO-31; UO-31, 48 h): 1580 nM
TGI (UO-31; UO-31, time 48 hrs): 9.7 µM
IC50 (U-251; U-251, 48 h): 2050 nM
TGI (U-251; U-251, time 48 hrs): 7.55 µM
IC50 (RPMI-8226; RPMI-8226, 48 h): 870 nM
TGI (RPMI-8226; RPMI-8226, time 48 hrs): 5.47 µM
IC50 (MDA-MB-231; MDA-MB-231, 48 h): 2180 nM
TGI (MDA-MB-231; MDA-MB-231, time 48 hrs): 7.78 µM
IC50 (SF-539; SF-539, 48 h): 1980 nM
TGI (SF-539; SF-539, time 48 hrs): 5.38 µM
IC50 (A498; A498, 48 h): 1210 nM
TGI (A498; A498, time 48 hrs): 4.96 µM
IC50 (WI-38): 16.8 µM
IC50 [1]: 97.4 nM
IC50 (HCC 2998; HCC 2998, 48 h): 1090 nM
TGI (HCC 2998; HCC 2998, time 48 hrs): 4.05 µM
IC50 (SNB-19; SNB-19, 48 h): 3.29 µM
TGI (SNB-19; SNB-19, time 48 hrs): 9.75 µM
IC50 (SF-295; SF-295, 48 h): 1380 nM
TGI (SF-295; SF-295, time 48 hrs): 4.84 µM
IC50 (COLO 205; COLO 205, 48 h): 2340 nM
TGI (COLO 205; COLO 205, time 48 hrs): 6.28 µM
IC50 (SN12C; 48 h): 2790 nM
TGI (SN12C; time 48 hrs): 8.37 µM
IC50 (T47D; 48 h): 1890 nM
TGI (T47D; time 48 hrs): 11 µM
IC50 (SK-OV-3; SK-OV-3, 48 h): 3.12 µM
TGI (SK-OV-3; SK-OV-3, time 48 hrs): 10.8 µM
IC50 (SK-MEL-2; SK-MEL-2, 48 h): 4 µM
TGI (SK-MEL-2; SK-MEL-2, time 48 hrs): 10.1 µM
IC50 (CCRF-CEM; 48 h): 1420 nM
TGI (CCRF-CEM; time 48 hrs): > 25 µM
IC50 (HL-60(TB); HL-60, 48 h): 2150 nM
TGI (HL-60(TB); HL-60, time 48 hrs): 14.2 µM
IC50 (KM12; KM12, 48 h): 2610 nM
TGI (KM12; KM12, time 48 hrs): 5.79 µM
IC50 (BT-549; BT-549, 48 h): 2180 nM
TGI (BT-549; BT-549, time 48 hrs): 11.6 µM
IC50 (Malme-3M; 48 h): 830 nM
TGI (Malme-3M; time 48 hrs): 3.42 µM
IC50 (HT-29; HT-29, 48 h): 1090 nM
TGI (HT-29; HT-29, time 48 hrs): 4.99 µM
